Measured values: US11603368B2, “Fused thiophene derivatives and their uses” (ENYO PHARMA, priority 2018, dated 2023)

Legend:
[1] = target: T1, CISD3 Gene Product (Miner2) (Homo sapiens, UniProt P0C7P0); test: Stability of Fe—S cluster binding of purified NEET protein Miner2; format: biochemical; settings: for Time (in minutes) to achieve 50% loss of bound cluster (Absorbance 458 nm), CISD3 Gene Product (Miner2) / Residual cluster bound at end of experiment (Percentage Absorbance 458 nm at time zero), CISD3 Gene Product (DMSO 11%): pH 6, 37° C., 1:3 protein:compound molar ratio; for Time (in minutes) to achieve 50% loss of bound cluster (Absorbance 458 nm), CISD3 Gene Product (Miner2): 6 μM compound, run time 180 minutes, Vehicle Control 60; for Residual cluster bound at end of experiment (Percentage Absorbance 458 nm at time zero), CISD3 Gene Product (DMSO 11%): end of 180 minutes, Vehicle Control 11%; for stabiliser or destabiliser of Fe—S cluster binding, CISD3 Gene Product (Miner2): time to 50% Fe—S cluster bound loss changed by more than 25% vs Control sample, at the concentrations tested
T1 sequence (P0C7P0 15-127): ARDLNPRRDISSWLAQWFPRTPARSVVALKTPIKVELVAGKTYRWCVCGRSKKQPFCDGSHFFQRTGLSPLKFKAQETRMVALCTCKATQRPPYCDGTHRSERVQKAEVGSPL
Protocol: (§1) The modulator effect on the NEET proteins encoded by human CISD1, CISD2, and CISD3 genes by the compounds of the invention has been tested and is reported below. Particularly, the biochemical function of the NEET proteins is measured by the stability of Fe—S cluster binding of the purified NEET proteins.
(§2) The Fe—S cluster binding capacity of NEET proteins is known to be coordinated by four amino-acids in a stretch of 16 (three Cysteine and one Histidine). As the lability of the Fe—S cluster of NEET proteins is sensitive to the environment, cluster stability measurements are one of the measures of interactions of NEET proteins with small molecules and compounds. NEET protein/2Fe-2S cluster stability can be assessed by monitoring the decay in absorbance of its characteristic 458-nm peak (characteristic of the oxidized 2Fe-2S cluster) over time. Each NEET protein (mitoNEET, NAF-1 and Miner 2) was tested for its Fe—S binding in the absence or presence of a compound according to the invention (see table 2 below). The rate of cluster release (time in minutes to achieve 50% loss of bound Fe—S cluster) was compared for each NEET protein in the presence of one of the compounds of the invention (in a 1:3 protein:compound molar ratio) relative to each protein alone.
(§3) At pH 6, all the three NEET proteins (mitoNEET, NAF-1 and Miner 2) have a characteristic rate of loss of the bound Fe—S cluster that can be measured by the decrease of absorbance at wavelength 458 nm over time, using a spectrophotometer. Thus, Bis-Tris buffer (100 mM Bis-Tris pH6, 100 mM Nacl) was used at pH 6 to dilute either DMSO (Blank sample: Bis-Tris Buffer pH 6, 6 μM DMSO), DMSO and one of the three NEET proteins (Control sample: Bis-Tris Buffer pH 6, 6 μM DMSO, 2 μM purified NEET protein) or DMSO, one of the three NEET proteins and a compound of the invention (Test sample: Bis-Tris Buffer pH 6, 6 μM DMSO, […], 6 μM compound of the invention).
(§4) A reaction mix containing DMSO diluted in the Bis-Tris Buffer with or without a compound of the invention was prepared. The purified NEET protein was the last component added to the reaction mix which was then aliquoted into 4 replicates in 96 wells plates. The absorbance at wavelength 458 nm was taken at 5 minutes intervals at 37° C. with a spectrofluorimeter. The assay run time for CISD2 gene product (NAF-1) was 500 minutes and 180 minutes for both the CISD 1 gene product (mitoNEET) and the CISD3 gene product (Miner 2).
(§5) In addition to time monitoring, residual bound Fe—S cluster to NEET protein was measured at the final point of the spectrometry assay for each Test sample and compared to the Control sample data (in parenthesis table 2). This residual binding is measured by the differential percentage between the absorbance 458 nm at time zero and the absorbance 458 nm at the end of the experiment (i.e. respectively 500 or 180 minutes as described hereabove), showing the percentage of NEET protein still able to bind a Fe—S cluster.
(§6) Analysis of the absorbance enables the time for which 50% loss of bound Fe—S cluster is reached (i.e. a 50% absorbance decrease at 458 nm) for each Test sample and each Control sample (in parenthesis table 2) to be determined. The data are then compared to determine whether the compound of the invention stabilizes or destabilizes the NEET protein/Fe—S cluster binding.

[2] = target: T2, CISD2 Gene Product (NAF-1) (Homo sapiens, UniProt Q8N5K1); test: Stability of Fe—S cluster binding of purified NEET protein NAF-1; format: biochemical; settings: for Time (in minutes) to achieve 50% loss of bound cluster (Absorbance 458 nm), CISD2 Gene Product (NAF-1) / Residual cluster bound at end of experiment (Percentage Absorbance 458 nm at time zero), CISD2 Gene Product (NAF-1): pH 6, 37° C., 1:3 protein:compound molar ratio; for Time (in minutes) to achieve 50% loss of bound cluster (Absorbance 458 nm), CISD2 Gene Product (NAF-1): 6 μM compound, run time 500 minutes, Vehicle Control 310; for Residual cluster bound at end of experiment (Percentage Absorbance 458 nm at time zero), CISD2 Gene Product (NAF-1): end of 500 minutes, Vehicle Control 3%; for stabiliser or destabiliser of Fe—S cluster binding, CISD2 Gene Product (NAF-1): time to 50% Fe—S cluster bound loss changed by more than 25% vs Control sample, at the concentrations tested
T2 sequence (Q8N5K1 57-135 limits assumed): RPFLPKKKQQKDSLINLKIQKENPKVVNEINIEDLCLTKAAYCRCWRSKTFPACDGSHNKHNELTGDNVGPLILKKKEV
Protocol: as §1, §2, §3, §4, §5, §6

[3] = system: H1N1 (influenza A/New Caledonia/20/99); test: Antiviral effect on A549 cells infected with H1N1; format: cell-based, H1N1 A/New Caledonia/20/99 virus; settings: Human A549 cells, MOI of 0.1, 48 h post-infection, MUNANA hydrolysis readout
Protocol: The antiviral effect of the compounds of the invention has been tested on A549 cell lines infected with H1N1 (influenza A/New Caledonia/20/99).
Human A549 cells (80,000 cells/well in a 96 well plate) were treated with a range of concentration of test molecules and immediately infected by H1N1 A/New Caledonia/20/99 virus (clinical isolate) at MOI of 0.1 in DMEM/1% Penicillin/streptomycin supplemented with 0.25 μg/ml TPCK trypsin (Sigma) and incubated at 37° C. in 5% CO2. 48 h post-infection, supernatants (25 μl) were collected and transferred into a 96-well black flat-bottom plate, mixed with 25 μl PBS with Ca++/Mg++(Thermo Fisher) and 50 μl of 2′-(4-Methylumbelliferyl)-α-D-N-acetylneuraminic acid sodium salt hydrate stock-solution (20 μM, MUNANA, Sigma). Plates were incubated 1 h at 37° C. and reaction is stopped by adding 100 μl of Stop Solution (glycine 0.1 M pH10.7/25% ethanol). The amount of fluorescent product released by MUNANA hydrolysis (4-MU) was measured in a Tecan spectrophotometer with excitation and emission wavelengths of 365 and 450 nm respectively.

[4] = target: T3, CISD1 Gene Product (mitoNEET) (Homo sapiens, UniProt Q9NZ45); test: Stability of Fe—S cluster binding of purified NEET protein mitoNEET; format: biochemical; settings: for Time (in minutes) to achieve 50% loss of bound cluster (Absorbance 458 nm), CISD1 Gene Product (mitoNEET) / Residual cluster bound at end of experiment (Percentage Absorbance 458 nm at time zero), CISD1 Gene Product (mitoNEET): pH 6, 37° C., 1:3 protein:compound molar ratio; for Time (in minutes) to achieve 50% loss of bound cluster (Absorbance 458 nm), CISD1 Gene Product (mitoNEET): 6 μM compound, run time 180 minutes, Vehicle Control 80; for Residual cluster bound at end of experiment (Percentage Absorbance 458 nm at time zero), CISD1 Gene Product (mitoNEET): end of 180 minutes, Vehicle Control 16%; for stabiliser or destabiliser of Fe—S cluster binding, CISD1 Gene Product (mitoNEET): time to 50% Fe—S cluster bound loss changed by more than 25% vs Control sample, at the concentrations tested
T3 sequence (Q9NZ45 33-108 limits assumed): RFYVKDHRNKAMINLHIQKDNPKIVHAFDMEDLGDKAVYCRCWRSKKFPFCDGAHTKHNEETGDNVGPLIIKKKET
Protocol: as §1, §2, §3, §4, §5, §6

[5] = Influenza A virus, H1N1, A549, 48 h

CC1CCCc2sc(NC(=O)c3ccccc3)c(C(=O)O)c21 (stereo not shown) [#74]
Time (in minutes) to achieve 50% loss of bound cluster (Absorbance 458 nm), CISD3 Gene Product (Miner2) [1]: 65 min
Residual cluster bound at end of experiment (Percentage Absorbance 458 nm at time zero), CISD3 Gene Product (DMSO 11%) [1]: 5%
Time (in minutes) to achieve 50% loss of bound cluster (Absorbance 458 nm), CISD2 Gene Product (NAF-1) [2]: 390 min
Residual cluster bound at end of experiment (Percentage Absorbance 458 nm at time zero), CISD2 Gene Product (NAF-1) [2]: 0%
stabiliser or destabiliser of Fe—S cluster binding, CISD2 Gene Product (NAF-1) [2]: Stabilisers
IC50 [3]: 182 nM
Time (in minutes) to achieve 50% loss of bound cluster (Absorbance 458 nm), CISD1 Gene Product (mitoNEET) [4]: 90 min
Residual cluster bound at end of experiment (Percentage Absorbance 458 nm at time zero), CISD1 Gene Product (mitoNEET) [4]: 0%

Cc1ccccc1C(=O)Nc1sc2c(c1C(=O)O)CCC(C(C)(C)C)C2 (stereo not shown) [#82]
Time (in minutes) to achieve 50% loss of bound cluster (Absorbance 458 nm), CISD3 Gene Product (Miner2) [1]: during 180 minutes
Residual cluster bound at end of experiment (Percentage Absorbance 458 nm at time zero), CISD3 Gene Product (DMSO 11%) [1]: 64%
stabiliser or destabiliser of Fe—S cluster binding, CISD3 Gene Product (Miner2) [1]: Stabilisers
Time (in minutes) to achieve 50% loss of bound cluster (Absorbance 458 nm), CISD2 Gene Product (NAF-1) [2]: 265 min
Residual cluster bound at end of experiment (Percentage Absorbance 458 nm at time zero), CISD2 Gene Product (NAF-1) [2]: 27%
IC50 [3, 5]: 349 nM
Time (in minutes) to achieve 50% loss of bound cluster (Absorbance 458 nm), CISD1 Gene Product (mitoNEET) [4]: during 180 minutes
Residual cluster bound at end of experiment (Percentage Absorbance 458 nm at time zero), CISD1 Gene Product (mitoNEET) [4]: 60%
stabiliser or destabiliser of Fe—S cluster binding, CISD1 Gene Product (mitoNEET) [4]: stabilisers

CC(C)OC1CCc2c(sc(NC(=O)c3ccccc3)c2C(=O)O)C1 (stereo not shown) [#103]
Time (in minutes) to achieve 50% loss of bound cluster (Absorbance 458 nm), CISD3 Gene Product (Miner2) [1]: 65 min
Residual cluster bound at end of experiment (Percentage Absorbance 458 nm at time zero), CISD3 Gene Product (DMSO 11%) [1]: 20%
Time (in minutes) to achieve 50% loss of bound cluster (Absorbance 458 nm), CISD2 Gene Product (NAF-1) [2]: 415 min
Residual cluster bound at end of experiment (Percentage Absorbance 458 nm at time zero), CISD2 Gene Product (NAF-1) [2]: 4%
stabiliser or destabiliser of Fe—S cluster binding, CISD2 Gene Product (NAF-1) [2]: Stabilisers
IC50 [3, 5]: 970 nM
Time (in minutes) to achieve 50% loss of bound cluster (Absorbance 458 nm), CISD1 Gene Product (mitoNEET) [4]: 95 min
Residual cluster bound at end of experiment (Percentage Absorbance 458 nm at time zero), CISD1 Gene Product (mitoNEET) [4]: 4%

CC(C)(C)C1CCc2c(sc(NC(=O)c3ccccc3Cl)c2C(=O)O)C1 (stereo not shown) [#107]
Time (in minutes) to achieve 50% loss of bound cluster (Absorbance 458 nm), CISD3 Gene Product (Miner2) [1]: 75 min
Residual cluster bound at end of experiment (Percentage Absorbance 458 nm at time zero), CISD3 Gene Product (DMSO 11%) [1]: 41%
stabiliser or destabiliser of Fe—S cluster binding, CISD3 Gene Product (Miner2) [1]: Stabilisers
Time (in minutes) to achieve 50% loss of bound cluster (Absorbance 458 nm), CISD2 Gene Product (NAF-1) [2]: 255 min
Residual cluster bound at end of experiment (Percentage Absorbance 458 nm at time zero), CISD2 Gene Product (NAF-1) [2]: 21%
IC50 [3, 5]: 1150 nM
Time (in minutes) to achieve 50% loss of bound cluster (Absorbance 458 nm), CISD1 Gene Product (mitoNEET) [4]: 105 min
Residual cluster bound at end of experiment (Percentage Absorbance 458 nm at time zero), CISD1 Gene Product (mitoNEET) [4]: 35%
stabiliser or destabiliser of Fe—S cluster binding, CISD1 Gene Product (mitoNEET) [4]: stabilisers
